# Reference: patent US20110207705A1, “OVIEDOMYCIN DERIVATIVES, METHOD FOR OBTAINING SAME AND USE THEREOF” (UNIVERSIDAD DE OVIEDO, priority 2008, published 2011)
# Read-outs that look alike come from different tables or passages of the source.
# Experiments:
# A549 (lung) = test: Anti-tumour activity, sulforhodamine B (SRB) colorimetric cell growth test; assay type: cell-based; details: 48 h exposure, read-out: GI50 (concentration at which the compound tested inhibits 50% of the cell growth in comparison with untreated cells)
# Procedure: (§1) The OVM derivatives were tested against a series of cell lines from tumours. Cell growth and viability were quantitatively determined with a colorimetric type test, using the reaction with sulforhodamine B (SRB), according to the technique described by Faircloth et al. (Journal of Tissue and Culture Methods 1988, 11, 201-205).
# (§2) 96-well microtiter plates are inoculated with cells (5×10^3 cells per well) in aliquots of 195 μl of medium, incubating them for 18 h, in medium without added compound, to allow the cells to adhere to the surface. Next, the compounds to be tested are added, in samples of 5 μl, in a concentration range of 10 to 10^−8 μg/ml, dissolved in DMSO/EtOH (0.2% in PS buffer). After 48 h exposure, the anti-tumour effect is measured using the SRB technique: the cells are fixed by adding 50 μl of cold trichloroacetic acid (50%) (w/v) and it is incubated for 60 min. at 4° C. The plates are washed with deionized water and dried. 100 μl of SRB solution (0.4% w/v in 1% acetic acid) are added to each well, and it is incubated for 10 min. at ambient temperature. The unbound SRB is eliminated, washing with 1% acetic acid. The plates are air dried and the bound colorant is dissolved with Tris buffer. The optical densities are read in an automatic dish spectrophotometer reader at a wavelength of 490 nm.
# HT29 (colon) = test: as above; assay type: cell-based; details: read-out: GI50 (concentration at which the compound tested inhibits 50% of the cell growth in comparison with untreated cells)
# Procedure: as §1, §2
# MDA-MB-231 (breast) = test: as above; assay type: cell-based; details: 48 h exposure, read-out: GI50 (concentration at which the compound tested inhibits 50% of the cell growth in comparison with untreated cells)
# Procedure: as §1, §2
# tumour cell lines = test: Anti-tumour activity against the series of tumour cell lines (SRB test); assay type: cell-based; details: tumour cell lines of Table 5, in words
# Procedure: as §1, §2
# [1] = spontaneous dehydration and oxidation; J. Am. Chem. Soc. 1999, 121, 1786-1794; cited from earlier work
Molecule,GI50 (A549 (lung); Homo sapiens) [µM],"GI50 (HT29 (colon); Homo sapiens, HT-29, 48 h exposure) [µM]",GI50 (MDA-MB-231 (breast); Homo sapiens) [µM],GI50 values (in words) (tumour cell lines),anti-tumour activity compared with OVM (tumour cell lines),GI50 (A549 (lung)) [µM],GI50 (HT29 (colon); 48 h exposure) [µM],GI50 (MDA-MB-231 (breast)) [µM],stability [1]
"C[C@]1(O)CC(=O)c2c(cc(O)c3c2C(=O)c2cccc(O)c2C3=O)C1 [formula VI, rabelomycin]",5.32,10.9,6.8,,,,,,
prejadomycin 2-carboxylate [formula VII],,,,submicromolar range,clearly greater activities than that of the OVM,0.6,1.17,0.38,
"C[C@]1(O)CC(=O)c2c(cc(O)c3c2C(=O)c2ccc(O)c(O)c2C3=O)C1 [formula XIII, 9-hydroxy-rabelomycin]",,,,,,3.1,14.1,7.06,
"CC1=CC(=O)[C@@H]2c3cc4cccc(O)c4c(O)c3C(=O)C[C@]2(O)C1 [formula X, prejadomycin]",,,,submicromolar range,clearly greater activities than that of the OVM,0.29,1.29,0.24,
"C[C@]1(O)CC(=O)C2c3cc4cccc(O)c4c(O)c3C(=O)C[C@]2(O)C1 (stereo partly shown) [formula XI, UWM6]",,,,,,> 100,> 100,24.8,unstable and spontaneously becomes rabelomycin
"Cc1c(O)c2cc(O)c3c(=O)c4c(O)cccc4c(=O)c3c2c(=O)c1=O [OVM, Oviedomycin]",,,,,,8.7,6.9,5.6,
"Cc1cc(O)c2c3c(c(O)c(O)c2c1)C(=O)c1c(O)cccc1C3=O [formula VIII, 5-hydroxy-dehydro-rabelomycin]",,,,,,6.24,8.03,2.56,
"4a,12b-dehydro-UWM6 [formula IX]",,,,submicromolar range,clearly greater activities than that of the OVM,0.77,1.85,0.65,
5-hydroxy-rabelomycin [formula XII],,,,,,7.62,12.4,13.3,
